The source made the active and inactive calls.

Assay [1] concerns the target T1, Histone-lysine N-methyltransferase NSD2 (Homo sapiens, UniProt O96028).
T1 sequence (O96028 whole entry): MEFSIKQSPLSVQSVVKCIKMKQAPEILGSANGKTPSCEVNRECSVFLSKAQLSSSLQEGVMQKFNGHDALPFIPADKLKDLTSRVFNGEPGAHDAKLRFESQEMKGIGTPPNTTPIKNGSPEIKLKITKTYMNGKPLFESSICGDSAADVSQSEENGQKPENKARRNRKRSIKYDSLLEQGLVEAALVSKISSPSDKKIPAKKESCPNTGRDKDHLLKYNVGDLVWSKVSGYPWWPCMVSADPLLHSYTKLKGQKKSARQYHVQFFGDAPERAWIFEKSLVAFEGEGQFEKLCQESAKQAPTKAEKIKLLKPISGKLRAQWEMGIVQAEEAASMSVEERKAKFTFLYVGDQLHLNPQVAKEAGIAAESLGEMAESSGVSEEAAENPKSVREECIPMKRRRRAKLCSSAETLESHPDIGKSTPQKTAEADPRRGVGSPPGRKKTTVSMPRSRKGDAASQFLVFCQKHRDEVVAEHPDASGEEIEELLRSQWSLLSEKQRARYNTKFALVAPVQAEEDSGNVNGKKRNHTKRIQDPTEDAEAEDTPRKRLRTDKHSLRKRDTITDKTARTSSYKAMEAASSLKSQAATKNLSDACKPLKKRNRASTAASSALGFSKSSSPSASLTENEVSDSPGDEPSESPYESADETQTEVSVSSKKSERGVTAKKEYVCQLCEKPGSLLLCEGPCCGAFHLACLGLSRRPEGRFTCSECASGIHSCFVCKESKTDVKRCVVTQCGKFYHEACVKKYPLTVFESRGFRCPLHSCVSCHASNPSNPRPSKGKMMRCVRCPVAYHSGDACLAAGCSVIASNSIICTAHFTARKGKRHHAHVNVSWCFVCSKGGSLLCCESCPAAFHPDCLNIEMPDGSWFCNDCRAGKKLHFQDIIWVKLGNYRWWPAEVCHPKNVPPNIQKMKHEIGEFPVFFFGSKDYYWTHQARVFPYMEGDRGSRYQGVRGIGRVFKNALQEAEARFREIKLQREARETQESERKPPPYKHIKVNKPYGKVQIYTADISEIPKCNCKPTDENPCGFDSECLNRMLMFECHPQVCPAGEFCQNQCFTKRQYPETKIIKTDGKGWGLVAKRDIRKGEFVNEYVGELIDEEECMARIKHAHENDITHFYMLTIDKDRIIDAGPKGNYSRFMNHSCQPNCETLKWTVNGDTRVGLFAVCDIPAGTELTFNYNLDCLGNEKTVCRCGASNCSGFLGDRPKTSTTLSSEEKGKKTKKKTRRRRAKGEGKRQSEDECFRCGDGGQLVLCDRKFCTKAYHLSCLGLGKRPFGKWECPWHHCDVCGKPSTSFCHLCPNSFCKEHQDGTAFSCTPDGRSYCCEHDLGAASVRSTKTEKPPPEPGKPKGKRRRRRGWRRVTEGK
It counts as biochemical.

The next assay addresses T2, Insulin-degrading enzyme (Homo sapiens, UniProt P14735).
T2 sequence (P14735 whole entry): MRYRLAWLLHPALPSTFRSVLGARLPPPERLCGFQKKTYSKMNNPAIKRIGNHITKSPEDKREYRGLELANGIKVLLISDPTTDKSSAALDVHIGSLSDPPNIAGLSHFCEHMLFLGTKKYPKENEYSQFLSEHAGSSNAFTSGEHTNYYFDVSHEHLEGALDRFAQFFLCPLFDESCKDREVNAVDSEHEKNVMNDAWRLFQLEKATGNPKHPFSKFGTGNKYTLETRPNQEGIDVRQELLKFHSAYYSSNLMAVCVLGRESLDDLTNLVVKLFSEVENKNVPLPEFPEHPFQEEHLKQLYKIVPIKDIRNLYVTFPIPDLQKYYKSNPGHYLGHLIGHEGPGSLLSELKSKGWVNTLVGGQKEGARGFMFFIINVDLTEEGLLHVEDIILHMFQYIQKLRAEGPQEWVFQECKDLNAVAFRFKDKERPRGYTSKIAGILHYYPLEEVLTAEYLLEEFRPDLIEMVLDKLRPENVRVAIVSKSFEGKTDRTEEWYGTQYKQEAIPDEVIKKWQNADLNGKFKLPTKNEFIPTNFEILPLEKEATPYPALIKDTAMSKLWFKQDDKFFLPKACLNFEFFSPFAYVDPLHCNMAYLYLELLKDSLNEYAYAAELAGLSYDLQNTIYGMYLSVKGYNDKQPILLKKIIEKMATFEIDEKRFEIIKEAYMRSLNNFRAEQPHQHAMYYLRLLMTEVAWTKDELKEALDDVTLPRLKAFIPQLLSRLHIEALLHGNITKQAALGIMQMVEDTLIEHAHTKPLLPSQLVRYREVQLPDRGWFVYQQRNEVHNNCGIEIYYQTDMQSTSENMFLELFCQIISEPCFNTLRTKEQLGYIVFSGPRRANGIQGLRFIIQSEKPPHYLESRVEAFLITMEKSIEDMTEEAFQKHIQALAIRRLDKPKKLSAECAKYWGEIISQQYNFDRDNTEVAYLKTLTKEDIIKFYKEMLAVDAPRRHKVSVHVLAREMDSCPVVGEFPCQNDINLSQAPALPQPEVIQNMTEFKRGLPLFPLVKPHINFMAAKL
The experiment in a line: recombinant IDE activation, cell-free – biochemical, fluorescence polarization, counter-screen for IDE activator project, dose response (AID 588681). On the technique in general: Polarisation of emitted light reports the rotation of a fluorescent probe.

The test system of the next assay is HeLa. The experiment in a line: viability loss in HeLa cells – cell-based, 24 h, cherry-picked samples, cytotoxicity control, dose response (AID 504726).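 Also: potency for cytotoxicity as loss of luminescence signal.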 It counts as functional. The conditions noted are these: Homo sapiens.
Assay [2] addresses T3, Dual specificity protein phosphatase 6 (Rattus norvegicus, UniProt Q64346).
T3 sequence (Q64346 whole entry): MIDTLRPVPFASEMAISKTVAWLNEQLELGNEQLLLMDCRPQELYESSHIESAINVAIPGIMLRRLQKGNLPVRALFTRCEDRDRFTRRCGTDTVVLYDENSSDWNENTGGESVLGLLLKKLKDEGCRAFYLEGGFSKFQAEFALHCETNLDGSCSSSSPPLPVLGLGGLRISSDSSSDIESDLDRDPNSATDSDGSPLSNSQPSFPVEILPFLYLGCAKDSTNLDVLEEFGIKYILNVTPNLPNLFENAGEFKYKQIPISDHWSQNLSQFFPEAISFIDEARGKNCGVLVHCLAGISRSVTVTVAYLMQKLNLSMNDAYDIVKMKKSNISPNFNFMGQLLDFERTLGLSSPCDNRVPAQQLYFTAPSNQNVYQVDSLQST
The assay can be described thus: inhibition of rat DUSP6 enzyme activity – biochemical, in vitro, primary screen (AID 425).

A further assay concerns the target Aurora kinase B (Homo sapiens, UniProt Q96GD4). It counts as functional.
Assay [3] deals with Dual specificity tyrosine-phosphorylation-regulated kinase 1A (Homo sapiens, UniProt Q13627). It counts as functional.
The target in assay [4] is Serine/threonine-protein kinase Chk1 (Homo sapiens, UniProt O14757). It counts as functional.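 Also: measured as one member of a kinome-wide kinase profiling panel.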
Sequence of Serine/threonine-protein kinase Chk1 (O14757 whole entry): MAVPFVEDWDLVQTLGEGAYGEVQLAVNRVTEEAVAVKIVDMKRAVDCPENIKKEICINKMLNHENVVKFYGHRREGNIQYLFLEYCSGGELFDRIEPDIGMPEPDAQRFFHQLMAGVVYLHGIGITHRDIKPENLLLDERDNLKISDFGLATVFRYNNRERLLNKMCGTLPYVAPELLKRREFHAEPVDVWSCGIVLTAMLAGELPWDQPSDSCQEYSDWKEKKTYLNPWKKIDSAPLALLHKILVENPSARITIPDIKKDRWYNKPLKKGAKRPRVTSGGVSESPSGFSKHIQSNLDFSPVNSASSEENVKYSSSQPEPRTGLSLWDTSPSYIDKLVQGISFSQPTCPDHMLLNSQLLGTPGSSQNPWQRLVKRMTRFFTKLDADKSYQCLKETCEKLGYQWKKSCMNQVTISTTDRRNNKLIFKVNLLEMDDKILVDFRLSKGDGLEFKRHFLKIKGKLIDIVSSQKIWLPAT

Sequence of Aurora kinase B (Q96GD4 whole entry): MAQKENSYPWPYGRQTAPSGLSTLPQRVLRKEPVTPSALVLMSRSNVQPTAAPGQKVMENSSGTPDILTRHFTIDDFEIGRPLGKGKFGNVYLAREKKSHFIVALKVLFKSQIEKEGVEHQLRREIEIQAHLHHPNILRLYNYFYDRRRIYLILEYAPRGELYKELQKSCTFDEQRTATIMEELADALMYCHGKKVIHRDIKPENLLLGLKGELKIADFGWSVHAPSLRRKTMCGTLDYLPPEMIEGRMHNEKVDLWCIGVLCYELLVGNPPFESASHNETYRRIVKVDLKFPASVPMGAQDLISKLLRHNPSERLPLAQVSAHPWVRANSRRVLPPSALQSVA

Regarding `O=C(NNc1cc(N2CCCC2)nc(N2CCCC2)n1)c1ccc([N+](=O)[O-])cc1`, in assay [1], the half-maximal activity concentration (AC50) (as a rule, the midpoint of the concentration-response curve, whichever way the signal moves) is 13.7 µM (active).
Regarding `O=S(=O)(O)c1cccc2c(N=Nc3ccc(O)c4ncccc34)cccc12`, the half-maximal activity concentration (AC50) is 7.57 µM (active) in assay [1] and 206 µM (active) in the assay with HeLa. On Insulin-degrading enzyme, the EC50 (in general, the concentration that produces a half-maximal response) is 17.3 µM (inactive). In addition, the IC50 – broadly, the concentration that gives 50% inhibition – in assay [2] was 71.5 µM (active).
`O=C(Cc1cccs1)Nc1nc2ccccc2s1`: the inhibitory constant (Ki) (usually the dissociation constant of the complex between target and ligand, obtained from inhibition or displacement) is 1 µM (active) at Aurora kinase B, 0.501 µM (active) in assay [3] and 0.316 µM (active) in assay [4].

The values above are taken from ChEMBL document CHEMBL1201862, “PubChem BioAssay data set” (2004).
